Activity calls are given as the source filed them. The rule behind the calls is not given here.
Assays:
SK-OV-3 [1] = assay: Induction of apoptosis in human SK-OV-3 cells assessed as early apoptotic cells at 2.5 uM incubated for 48 hrs by Annexin V-FITC/PI staining based flow cytometry (reference value: 0.08 %); assay type: functional
SK-OV-3 [2] = assay: Induction of apoptosis in human SK-OV-3 cells assessed as late apoptotic cells at 5 uM incubated for 48 hrs by Annexin V-FITC/PI staining based flow cytometry (reference value: 4.51 %); assay type: functional
THP-1 [3] = assay: Induction of apoptosis in human THP-1 cells assessed as change in mitochondrial membrane potential at 0.5 uM incubated for 48 hrs by JC-1 staining based flow cytometry (reference value: 5.15 %); assay type: functional
THP-1 [4] = assay: Induction of apoptosis in human THP-1 cells assessed as change in mitochondrial membrane potential at 2.5 uM incubated for 48 hrs by JC-1 staining based flow cytometry (reference value: 5.15 %); assay type: functional
KG-1 [5] = assay: Upregulation of Bax expression in human KG-1 cells incubated for 48 hrs by Western blot analysis; assay type: functional, cell-based; settings: dose 0.5-2.5 µM
KG-1 [6] = assay: Downregulation of Bcl-XL expression in human KG-1 cells incubated for 48 hrs by Western blot analysis; assay type: functional, cell-based; settings: dose 0.5-2.5 µM
THP-1 [7] = assay: Downregulation of Bcl-XL expression in human THP-1 cells incubated for 48 hrs by Western blot analysis; assay type: functional, cell-based; settings: dose 0.5-2.5 µM
SK-OV-3 [8] = assay: Downregulation of TAZ expression in human SK-OV-3 cells incubated for 48 hrs by Western blot analysis; assay type: functional, cell-based; settings: dose 0.5-2.5 µM
KG-1 [9] = assay: Downregulation of c-Myc expression in human KG-1 cells incubated for 48 hrs by Western blot analysis; assay type: functional, cell-based; settings: dose 0.5-2.5 µM
THP-1 [10] = assay: Downregulation of c-Myc expression in human THP-1 cells incubated for 48 hrs by Western blot analysis; assay type: functional, cell-based; settings: dose 0.5-2.5 µM
U-937 [11] = assay: Induction of apoptosis in human U-937 cells assessed as viable cells at 0.5 uM incubated for 48 hrs by Annexin V-FITC/PI staining based flow cytometry (reference value: 93.30 %); assay type: functional; settings: read-out: Activity
U-937 [12] = assay: Induction of apoptosis in human U-937 cells assessed as early apoptotic cells at 0.5 uM incubated for 48 hrs by Annexin V-FITC/PI staining based flow cytometry (reference value: 2.72 %); assay type: functional
U-937 [13] = assay: Induction of apoptosis in human U-937 cells assessed as late apoptotic cells at 0.5 uM incubated for 48 hrs by Annexin V-FITC/PI staining based flow cytometry (reference value: 1.96 %); assay type: functional
U-937 [14] = assay: Induction of apoptosis in human U-937 cells assessed as necrotic cells at 0.5 uM incubated for 48 hrs by Annexin V-FITC/PI staining based flow cytometry (reference value: 2.03 %); assay type: functional
U-937 [15] = assay: Induction of apoptosis in human U-937 cells assessed as viable cells at 1 uM incubated for 48 hrs by Annexin V-FITC/PI staining based flow cytometry (reference value: 93.30 %); assay type: functional; settings: read-out: Activity
U-937 [16] = assay: Induction of apoptosis in human U-937 cells assessed as early apoptotic cells at 1 uM incubated for 48 hrs by Annexin V-FITC/PI staining based flow cytometry (reference value: 2.72 %); assay type: functional
U-937 [17] = assay: Induction of apoptosis in human U-937 cells assessed as late apoptotic cells at 1 uM incubated for 48 hrs by Annexin V-FITC/PI staining based flow cytometry (reference value: 1.96 %); assay type: functional
U-937 [18] = assay: Induction of apoptosis in human U-937 cells assessed as necrotic cells at 1 uM incubated for 48 hrs by Annexin V-FITC/PI staining based flow cytometry (reference value: 2.03 %); assay type: functional
U-937 [19] = assay: Induction of apoptosis in human U-937 cells assessed as viable cells at 2.5 uM incubated for 48 hrs by Annexin V-FITC/PI staining based flow cytometry (reference value: 93.30 %); assay type: functional; settings: read-out: Activity
U-937 [20] = assay: Induction of apoptosis in human U-937 cells assessed as early apoptotic cells at 2.5 uM incubated for 48 hrs by Annexin V-FITC/PI staining based flow cytometry (reference value: 2.72 %); assay type: functional
U-937 [21] = assay: Induction of apoptosis in human U-937 cells assessed as late apoptotic cells at 2.5 uM incubated for 48 hrs by Annexin V-FITC/PI staining based flow cytometry (reference value: 1.96 %); assay type: functional
U-937 [22] = assay: Induction of apoptosis in human U-937 cells assessed as necrotic cells at 2.5 uM incubated for 48 hrs by Annexin V-FITC/PI staining based flow cytometry (reference value: 2.03 %); assay type: functional
U-937 [23] = assay: Induction of apoptosis in human U-937 cells assessed as change in mitochondrial membrane potential at 1 uM incubated for 48 hrs by JC-1 staining based flow cytometry (reference value: 2.20 %); assay type: functional
U-937 [24] = assay: Induction of apoptosis in human U-937 cells assessed as change in mitochondrial membrane potential at 2.5 uM incubated for 48 hrs by JC-1 staining based flow cytometry (reference value: 2.20 %); assay type: functional
U-937 [25] = assay: Induction of apoptosis in human U-937 cells assessed as change in mitochondrial membrane potential at 5 uM incubated for 48 hrs by JC-1 staining based flow cytometry (reference value: 2.20 %); assay type: functional
U-937 [26] = assay: Upregulation of p21 expression in human U-937 cells incubated for 48 hrs by Western blot analysis; assay type: functional, cell-based
U-937 [27] = assay: Downregulation of XIAP expression in human U-937 cells incubated for 48 hrs by Western blot analysis; assay type: functional, cell-based
THP-1 [28] = assay: Downregulation of TAZ expression in human THP-1 cells incubated for 48 hrs by Western blot analysis; assay type: functional, cell-based; settings: dose 0.5-2.5 µM
U-937 [29] = assay: Downregulation of TAZ expression in human U-937 cells incubated for 48 hrs by Western blot analysis; assay type: functional, cell-based; settings: dose 0.5-2.5 µM
THP-1 [30] = assay: Downregulation of Bcl-2 expression in human THP-1 cells incubated for 48 hrs by Western blot analysis; assay type: functional, cell-based; settings: dose 0.5-2.5 µM
[31] = target: Signal transducer and activator of transcription 3 (Homo sapiens) (UniProt P40763); assay: Inhibition of STAT3 phosphorylation in human SK-OV-3 cells at 1 to 5 uM incubated for 48 hrs by Western blot analysis; assay type: cell-based; settings: dose 1-5 µM
Signal transducer and activator of transcription 3 (Homo sapiens), sequence (P40763 whole entry): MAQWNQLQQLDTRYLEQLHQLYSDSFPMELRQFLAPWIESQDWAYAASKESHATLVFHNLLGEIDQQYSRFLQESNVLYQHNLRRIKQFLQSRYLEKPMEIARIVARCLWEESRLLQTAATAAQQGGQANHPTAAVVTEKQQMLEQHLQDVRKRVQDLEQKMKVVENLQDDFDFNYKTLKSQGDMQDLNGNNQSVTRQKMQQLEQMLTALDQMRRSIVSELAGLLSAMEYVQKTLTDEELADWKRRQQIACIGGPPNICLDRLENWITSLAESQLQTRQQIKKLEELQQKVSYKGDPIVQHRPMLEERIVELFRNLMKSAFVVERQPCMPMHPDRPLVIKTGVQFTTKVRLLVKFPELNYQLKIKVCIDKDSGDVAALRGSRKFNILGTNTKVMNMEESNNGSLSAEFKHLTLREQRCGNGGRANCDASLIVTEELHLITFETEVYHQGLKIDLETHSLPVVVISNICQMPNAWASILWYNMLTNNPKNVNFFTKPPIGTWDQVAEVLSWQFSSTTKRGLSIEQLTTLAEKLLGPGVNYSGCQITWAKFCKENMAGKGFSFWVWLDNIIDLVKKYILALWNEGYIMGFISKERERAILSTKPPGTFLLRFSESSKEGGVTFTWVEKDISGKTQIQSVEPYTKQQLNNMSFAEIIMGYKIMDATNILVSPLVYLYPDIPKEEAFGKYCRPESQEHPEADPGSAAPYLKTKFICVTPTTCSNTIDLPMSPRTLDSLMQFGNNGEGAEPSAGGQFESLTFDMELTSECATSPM

SK-OV-3 [32] = assay: Antitumor activity against human SK-OV-3 cells xenografted in nude mouse assessed as tumor growth suppression at 30 to 60 mg/kg, ip qd treated for 14 days; assay type: functional, organism-based; settings: dose 30-60 mg/kg, time 14.0 day
[33] = Toxicity in nude mouse xenografted with human SK-OV-3 cells assessed as body weight change at 30 to 60 mg/kg, ip qd treated for 14 days; assay type: organism-based; settings: in vivo, 336 h, dose 30-60 mg/kg, time 14 day
[34] = Toxicity in nude mouse xenografted with human SK-OV-3 cells assessed as histopathological change in heart at 30 to 60 mg/kg, ip qd treated for 14 days by H and E staining based analysis; assay type: organism-based; settings: in vivo, 336 h, dose 30-60 mg/kg, time 14 day
[35] = Toxicity in nude mouse xenografted with human SK-OV-3 cells assessed as histopathological change in liver at 30 to 60 mg/kg, ip qd treated for 14 days by H and E staining based analysis; assay type: organism-based; settings: in vivo, 336 h, dose 30-60 mg/kg, time 14 day
[36] = Toxicity in nude mouse xenografted with human SK-OV-3 cells assessed as histopathological change in spleen at 30 to 60 mg/kg, ip qd treated for 14 days by H and E staining based analysis; assay type: organism-based; settings: in vivo, 336 h, dose 30-60 mg/kg, time 14 day
[37] = Toxicity in nude mouse xenografted with human SK-OV-3 cells assessed as histopathological change in lungs at 30 to 60 mg/kg, ip qd treated for 14 days by H and E staining based analysis; assay type: organism-based; settings: in vivo, 336 h, dose 30-60 mg/kg, time 14 day

In the case of `CCc1nccnc1C(=O)/C=C/c1ccccn1`, the Activity (SK-OV-3 [1]) is reported as 0.41%, the Activity (SK-OV-3 [2]) is reported as 45.06% and the Activity (THP-1 [3]) is reported as 6.52%. The Activity (THP-1 [4]) was 26.66%, the Activity (KG-1 [5]) was “Dose-dependent-effect” and the Activity (KG-1 [6]) was “Dose-dependent-effect”. For the same molecule, the Activity (THP-1 [7]) was “Dose-dependent-effect”, the Activity (SK-OV-3 [8]) was “Dose-dependent-effect” and the Activity (KG-1 [9]) was “Dose-dependent-effect”. For the same molecule, the Activity (THP-1 [10]) was “Dose-dependent-effect”.

In the case of `Cc1nccnc1C(=O)/C=C/c1cccc(C#N)c1`, the viability at 0.5 µM (U-937 [11]) is reported as 80.9%, the Activity (U-937 [12]) is reported as 9.68% and the Activity (U-937 [13]) is reported as 6.79%. It also gave an Activity (U-937 [14]) of 2.64%, a viability at 1 µM (U-937 [15]) of 76.2% and an Activity (U-937 [16]) of 10.98%. The Activity (U-937 [17]) was 9.69%, the Activity (U-937 [18]) was 3.14% and the viability at 2.5 µM (U-937 [19]) was 75.5%. It also gave an Activity (U-937 [20]) of 11.68%, an Activity (U-937 [21]) of 9.73% and an Activity (U-937 [22]) of 3.09%. For the same molecule, the Activity (SK-OV-3 [1]) was 0.77%, the Activity (SK-OV-3 [2]) was 65.66% and the Activity (THP-1 [3]) was 6.42%. The Activity (THP-1 [4]) was 29.42%, the Activity (U-937 [23]) was 3.68% and the Activity (U-937 [24]) was 4.53%. The Activity (U-937 [25]) was 21.63%, the Activity (U-937 [26]) was “Dose-dependent-effect” and the Activity (U-937 [27]) was “Dose-dependent-effect”. For the same molecule, the Activity (THP-1 [28]) was “Dose-dependent-effect”, the Activity (U-937 [29]) was “Dose-dependent-effect” and the Activity (THP-1 [30]) was “Dose-dependent-effect”. For the same molecule, the inhibition [31] was “Active”, the Activity (SK-OV-3 [32]) was “Active” and the Activity [33] was “Non-toxic”. The Activity [34] was “Non-toxic”, the Activity [35] was “Non-toxic” and the Activity [36] was “Non-toxic”. The Activity [37] was “Non-toxic”.
